{
  "source": "patent US8911953B2",
  "about": "“TDF-related compounds and analogs thereof, analogs and bioactive fragments” (Thrasos Innovation, Inc., priority 2005, dated 2014)",
  "key": {"[1]": {"tested_on": "HK-2 (Human Kidney-2) cells", "experiment": "HK-2 cell culture, TNF-alpha induced cytokine and adhesion molecule production (ELISA)", "type": "cell-based", "details": "proximal tubule cells", "experimental": "Injury of PTEC by TNF-α and cisplatin (an anti-neoplastic agent) results in the induction of apoptosis, as shown by DNA damage, mitochondial disfunction, BAX […] and caspase activation. BMP-7 protects PTEC/kidney function by inhibiting TNF-α and cisplatin-induced apoptosis in these cells. The immortalized PTEC-derived HK-2 (Human Kidney-2) cells (ATCC number CRL-2190) were grown in serum-free keratinocyte medium (GIBCO number 17005-042) supplemented with epidermal growth factor (EGF: 5 ng/mL) and bovine pituitary extract (40 ug/mL) for 48 hours as described previously (Ryan et al. (1994) Kidney International 45:48-57). Cells were transferred to 24-well plates at a density of 3×10^5 cells per well. After 24 hours, cells were incubated with fresh medium containing TNF-alpha (5 ng/mL) for 20 hours. Controls received medium alone. Then cells were washed twice with fresh culture medium and further incubated with culture medium alone (medium control, and TNF control wells) or TDF-1 at three different concentrations (40, 200 or 1000 ng/mL) or TDFRP compounds at three different concentrations (4, 20 or 100 uM) for sixty hours. During incubation, cells were kept in a 5% CO2 humid atmosphere at 37° C. […] The concentrations of IL-6, IL-8 and sICAM-1 in culture supernatants were measured by specific ELISA (FIG. 14). […]"}, "STZ CD1 mice": {"tested_on": "STZ CD1 mice", "experiment": "Streptozotocin (STZ)-induced diabetic nephropathy model", "type": "in vivo, mouse", "details": "ip 5 mg/kg/24 hr, month 5 through 6", "experimental": "Reversal of interstitial fibrosis by TDFRP compounds in a CD1 mouse model of streptozotocin (STZ)-induced diabetic nephropathy. A. Schematic of the STZ experimental protocol. Mice were injected with streptozotocin at Day 0 (D0) to induce diabetes and renal injury and sacrificed at 6 months (6M). Vehicle or BMP-7 (positive control) was administered from D0 through 6 months (6M). TDFRP (SEQ ID NO:45) was administered either orally or intraperitoneally from month 5 (5M) through 6M for 30 total days.; B: Kidney section of vehicle-treated STZ animal showing significant interstitial fibrosis; C: Kidney section of STZ animal that received ip administration of TDFRP compound (SEQ ID NO:45) (5 mg/kg/24 hr).\nSTZ-induced Type 1 diabetes is a widely used experimental model for diabetic nephropathy. Mice given iv STZ develop a progressive loss of pancreatic beta cells culminating in diabetes and renal damage within a six month period of time. In a typical experiment, TDFRP compounds can alleviate fibrosis, reduce proteinuria and protect the kidneys from STZ damage.\nThe effect of TDFRP compounds on cell damage due to diabetic nephropathy is measured by the method of Wang and coworkers (Wang et al., (2003) 63(6): 2037) (FIG. 8A). Diabetes is induced in 200 g rats by a single dose of streptozotocin."}},
  "note": "Positions of bridges follow the written chain, without caps; N, C: chain ends. No end group written: not given here.",
  "data": [
    {"sequence": "CYFDDSSNVLCKKYRS (disulfide 1-11 (inferred); not fully specified) [SEQ ID NO:45]", "values": [
      {"measurement": "TNF-alpha induced inflammatory response (increase in IL-6)", "setting": "[1]", "result": "alleviate"},
      {"measurement": "renal interstitial fibrosis", "setting": "STZ CD1 mice", "result": "effectively reversed"}
    ]}
  ]
}
